Test system: yeast genes (level of expressed mRNA)
Assay: DNA chip analysis of expressed mRNA of yeast genes after 2 h culture with a toxic chemical substance
Type: cell-based, Saccharomyces cerevisiae S288C
Conditions: for The level of expressed mRNA in the presence of chemical substance/ (ratio to absence): transport facilitation protein gene; for The level of expressed mRNA in the presence of chemical substance/: ratio to no chemical; for The level of expressed mRNA in the presence of chemical substance/ (ratio to absence of chemical substance): stress protein genes, DNA chip
Method in brief: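 Values are treated-to-control fluorescence ratios from a whole-yeast-genome DNA chip (65° C, over 12 h hybridization) using Cy3/Cy5-labelled cDNA from mRNA. Log-phase S288C cells in YPD at 25° C were exposed 2 h to a toxicant at sublethal, growth-inhibiting concentration.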

sodium dodecylbenzosulfonate [(17)]
level of expressed mRNA in the presence of chemical substance/in its absence (gene YNL037C): 0.9 | level of expressed mRNA in the presence of chemical substance/in its absence (gene YNL045W): 1.1 | The level of expressed mRNA in the presence of chemical substance/absence: YNL058C (gene YNL058C): 0.8 | The level of expressed mRNA in the presence of chemical substance/absence: YNL063W (gene YNL063W): 0.9 | level of expressed mRNA in the presence of chemical substance/in its absence (gene YNL104C): 0.9 | level of expressed mRNA in the presence of chemical substance/in its absence (gene YNL106C): 1.1 | level of expressed mRNA in the presence of chemical substance/in its absence (gene YNL130C): 0.7 | level of expressed mRNA in the presence of chemical substance/in its absence (gene YNL169C): 1.1 | The level of expressed mRNA in the presence of chemical substance/absence: YNL176C (gene YNL176C): 0.6 | The level of expressed mRNA in the presence of chemical substance/absence: YNL181W (gene YNL181W): 0.8 | The level of expressed mRNA in the presence of chemical substance/absence: YNL191W (gene YNL191W): 0.5 | The level of expressed mRNA in the presence of chemical substance/absence: YNL194C (gene YNL194C): 0.8 | The level of expressed mRNA in the presence of chemical substance/absence: YNL200C (gene YNL200C): 1.2 | The level of expressed mRNA in the presence of chemical substance/absence: YNL212W (gene YNL212W): 0.9 | level of expressed mRNA in the presence of chemical substance/in its absence (gene YNL231C): 3.1 | The level of expressed mRNA in the presence of chemical substance/absence: YNL253W (gene YNL253W): 1.1 | The level of expressed mRNA in the presence of chemical substance/absence: YNL265C (gene YNL265C): 0.9 | The level of expressed mRNA in the presence of chemical substance/absence: YNL276C (gene YNL276C): 1.1 | level of expressed mRNA in the presence of chemical substance/in its absence (gene YNL322C): 0.9 | level of expressed mRNA in the presence of chemical substance/in its absence (gene YNR002C): 1.5 | level of expressed mRNA in the presence of chemical substance/in its absence (gene YNR019W): 2.4 | level of expressed mRNA in the presence of chemical substance/in its absence (gene YNR033W): 0.9 | The level of expressed mRNA in the presence of chemical substance/absence: YNR051C (gene YNR051C): 0.7 | level of expressed mRNA in the presence of chemical substance/in its absence (gene YNR059W): 2.6 | The level of expressed mRNA in the presence of chemical substance/absence: YOL026C (gene YOL026C): 2.1 | The level of expressed mRNA in the presence of chemical substance/absence: YOL030W (gene YOL030W): 0.9 | level of expressed mRNA in the presence of chemical substance/in its absence (gene YOL058W): 1.2 | level of expressed mRNA in the presence of chemical substance/in its absence (gene YOL126C): 1.6 | level of expressed mRNA in the presence of chemical substance/in its absence (gene YOL143C): 1.8 | level of expressed mRNA in the presence of chemical substance/in its absence (gene YOL153C): 1.1 | level of expressed mRNA in the presence of chemical substance/in its absence (gene YOL157C): 1.4 | The level of expressed mRNA in the presence of chemical substance/absence: YOR022C (gene YOR022C): 1.1 | The level of expressed mRNA in the presence of chemical substance/absence: YOR087W (gene YOR087W): 0.8 | The level of expressed mRNA in the presence of chemical substance/absence: YOR088W (gene YOR088W): 0.7 | level of expressed mRNA in the presence of chemical substance/in its absence (gene YOR099W): 1.2 | level of expressed mRNA in the presence of chemical substance/in its absence (gene YOR130C): 1.5 | level of expressed mRNA in the presence of chemical substance/in its absence (gene YOR136W): 0.8 | The level of expressed mRNA in the presence of chemical substance/absence: YOR138C (gene YOR138C): 1.1 | The level of expressed mRNA in the presence of chemical substance/absence: YOR155C (gene YOR155C): 0.8 | The level of expressed mRNA in the presence of chemical substance/absence: YOR253W (gene YOR253W): 0.9 | The level of expressed mRNA in the presence of chemical substance/absence: YOR267C (gene YOR267C): 1.3 | The level of expressed mRNA in the presence of chemical substance/absence: YOR325W (gene YOR325W): 0.8 | level of expressed mRNA in the presence of chemical substance/in its absence (gene YOR336W): 1.0 | level of expressed mRNA in the presence of chemical substance/in its absence (gene YOR344C): 1.3 | level of expressed mRNA in the presence of chemical substance/in its absence (gene YOR347C): 1.7 | The level of expressed mRNA in the presence of chemical substance/absence: YPL005W (gene YPL005W): 1.2 | level of expressed mRNA in the presence of chemical substance/in its absence (gene YPL017C): 1.3 | The level of expressed mRNA in the presence of chemical substance / the level in the absence of chemical substance, yeast gene YPL107W (gene YPL107W, DNA chip fluorescence ratio to control without chemical, 2 hours culture with chemical, growth-inhibiting non-lethal concentration): 1.0 | The level of expressed mRNA in the presence of chemical substance / the level in the absence of chemical substance, yeast gene YPL138C (gene YPL138C, DNA chip fluorescence ratio to control without chemical, 2 hours culture with chemical, growth-inhibiting non-lethal concentration): 0.8 | The level of expressed mRNA in the presence of chemical substance/absence: YPL150W (gene YPL150W): 1.4 | The level of expressed mRNA in the presence of chemical substance/absence: YPL151C (gene YPL151C): 0.8 | The level of expressed mRNA in the presence of chemical substance/absence: YPL152W (gene YPL152W): 1.2 | The level of expressed mRNA in the presence of chemical substance/absence: YPL168W (gene YPL168W): 1.1 | The level of expressed mRNA in the presence of chemical substance/absence: YPL180W (gene YPL180W): 1.0 | The level of expressed mRNA in the presence of chemical substance/absence: YPL188W (gene YPL188W): 0.7 | The level of expressed mRNA in the presence of chemical substance/absence: YPL221W (gene YPL221W): 1.5 | The level of expressed mRNA in the presence of chemical substance/absence: YPL225W (gene YPL225W): 1.0 | The level of expressed mRNA in the presence of chemical substance/absence: YPL249C (gene YPL249C): 0.8 | The level of expressed mRNA in the presence of chemical substance/absence: YPL260W (gene YPL260W): 0.8 | level of expressed mRNA in the presence of chemical substance/in its absence (gene YPL265W): 0.5 | level of expressed mRNA in the presence of chemical substance/in its absence (gene YPR006C): 1.8 | level of expressed mRNA in the presence of chemical substance/in its absence (gene YPR026W): 0.9 | The level of expressed mRNA in the presence of chemical substance/absence: YPR049C (gene YPR049C): 1.0 | The level of expressed mRNA in the presence of chemical substance/absence: YPR061C (gene YPR061C): 1.1 | The level of expressed mRNA in the presence of chemical substance/absence: YPR093C (gene YPR093C): 1.4 | The level of expressed mRNA in the presence of chemical substance/absence: YPR146C (gene YPR146C): 1.0 | The level of expressed mRNA in the presence of chemical substance/absence: YPR148C (gene YPR148C): 0.9 | The level of expressed mRNA in the presence of chemical substance/absence: YPR150W (gene YPR150W): 0.9 | The level of expressed mRNA in the presence of chemical substance/absence: YPR158W (gene YPR158W): 0.9 | The level of expressed mRNA in the presence of chemical substance/absence: YPR169W (gene YPR169W): 1.1 | The level of expressed mRNA in the presence of chemical substance/absence: YPR172W (gene YPR172W): 1.1 | The level of expressed mRNA in the presence of chemical substance/absence: YPR174C (gene YPR174C): 1.4 | The level of expressed mRNA in the presence of chemical substance/in the absence of chemical substance (yeast gene YAL023C): 1.0 | The level of expressed mRNA in the presence of chemical substance/in the absence of chemical substance (yeast gene YAL060W): 1.1 | The level of expressed mRNA in the presence of chemical substance/in the absence of chemical substance (yeast gene YAL062W): 1.0 | The level of expressed mRNA in the presence of chemical substance/ (ratio to absence) (yeast gene YAL067C): 1.0 | The level of expressed mRNA in the presence of chemical substance/The level of expressed mRNA in the absence of chemical substance (yeast gene YAR010C): 1.5 | The level of expressed mRNA in the presence of chemical substance/The level of expressed mRNA in the absence of chemical substance (yeast gene YBL005W-A): 1.3 | The level of expressed mRNA in the presence of chemical substance/ (ratio to absence) (yeast gene YBL030C): 1.0 | The level of expressed mRNA in the presence of chemical substance/ (ratio to absence), gene YBL038W (yeast gene YBL038W, mitochondria-located protein genes, 2 h culture with chemical): 1.2 | The level of expressed mRNA in the presence of chemical substance/The level of expressed mRNA in the absence of chemical substance (yeast gene YBL041W): 1.3 | The level of expressed mRNA in the presence of chemical substance/The level of expressed mRNA in the absence of chemical substance (yeast gene YBL043W): 2.3 | The level of expressed mRNA in the presence of chemical substance/ (yeast gene YBL065W): 1.1 | The level of expressed mRNA in the presence of chemical substance/The level of expressed mRNA in the absence of chemical substance (yeast gene YBL078C): 1.8 | The level of expressed mRNA in the presence of chemical substance/ (ratio to absence of chemical substance) (yeast gene YBL093C): 1.4 | The level of expressed mRNA in the presence of chemical substance/ (ratio to absence) (yeast gene YBL099W): 0.7 | The level of expressed mRNA in the presence of chemical substance/in the absence of chemical substance (yeast gene YBR006W): 1.2 | The level of expressed mRNA in the presence of chemical substance/ (in its absence), gene YBR036C (yeast gene YBR036C, ratio of DNA chip fluorescence intensity to that without chemical substance): 2.1 | The level of expressed mRNA in the presence of chemical substance/ (ratio to absence of chemical substance) (yeast gene YBR044C): 0.9 | The level of expressed mRNA in the presence of chemical substance/ (yeast gene YBR047W): 1.3 | The level of expressed mRNA in the presence of chemical substance/ (ratio to absence) (yeast gene YBR052C): 1.8 | The level of expressed mRNA in the presence of chemical substance/in the absence of chemical substance (yeast gene YBR056W): 2.4 | The level of expressed mRNA in the presence of chemical substance/ (ratio to absence) (yeast gene YBR068C): 1.1 | The level of expressed mRNA in the presence of chemical substance/ (yeast gene YBR101C): 0.9

Source: patent US20050112573A1, “Method of detecting toxic substance” (priority 2001, published 2005)
